{"source": "patent US20220390432A1", "about": "“METHODS OF CHARACTERIZING AND UTILIZING AGENT-CONDENSATE INTERACTIONS” (Whitehead Institute for Biomedical Research, priority 2019, published 2022)", "key": {"HP1α": {"target": "T1, HP1α (Homo sapiens, UniProt P45973)", "T1 construct": "HP1α—full length, amino acids 1-191; 6xHis (N); made in house; host or cells: LOBSTR cells (E. coli)", "T1 sequence (P45973 whole entry, the tested form may be a part)": "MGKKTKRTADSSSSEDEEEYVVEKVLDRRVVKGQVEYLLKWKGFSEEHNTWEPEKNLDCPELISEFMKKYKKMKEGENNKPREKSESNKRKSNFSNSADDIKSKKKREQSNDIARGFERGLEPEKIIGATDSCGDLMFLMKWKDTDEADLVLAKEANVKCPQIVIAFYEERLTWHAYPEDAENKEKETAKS", "assay": "In vitro droplet assay, small molecule partitioning into HP1α condensates", "assay_type": "binding", "description": "Recombinant BFP, GFP, or mCherry fusion proteins were concentrated and desalted to an appropriate protein concentration and 125 mM NaCl using Amicon Ultra centrifugal filters (30K MWCO, Millipore). Recombinant protein was added too. […] The protein solution was immediately loaded onto glass bottom 384 well plate (Cellvis P384-1.5H-N) and imaged with an Andor confocal microscope with a 150× objective. Unless indicated, images presented are of droplets settled on the glass coverslip.\nDrug and small molecule concentrations used in the droplet experiments are as follows:\nTo analyze in vitro droplet experiments, custom Python scripts using the scikit-image package were written to identify droplets and characterize their size, shape and intensity. […] After segmentation, mean intensity for each droplet was calculated while excluding pixels near the phase interface, and background-corrected by subtracting intensity of dark images of droplet formation buffer only. Droplets identified in the channel of the fluorescent protein from ten independent fields of view were quantified for each experiment. The maximum intensity of signal within the droplets was calculated for each channel, the maximum intensity in the drug channel was termed “maximum drug intensity”. […]"}, "MED1 droplets": {"target": "T2, MED1 droplets (Homo sapiens, UniProt Q15648)", "T2 construct": "MED1—amino acids 600-1581; 6xHis (N); made in house; host or cells: LOBSTR cells (E. coli)", "T2 sequence (Q15648 600-1581)": "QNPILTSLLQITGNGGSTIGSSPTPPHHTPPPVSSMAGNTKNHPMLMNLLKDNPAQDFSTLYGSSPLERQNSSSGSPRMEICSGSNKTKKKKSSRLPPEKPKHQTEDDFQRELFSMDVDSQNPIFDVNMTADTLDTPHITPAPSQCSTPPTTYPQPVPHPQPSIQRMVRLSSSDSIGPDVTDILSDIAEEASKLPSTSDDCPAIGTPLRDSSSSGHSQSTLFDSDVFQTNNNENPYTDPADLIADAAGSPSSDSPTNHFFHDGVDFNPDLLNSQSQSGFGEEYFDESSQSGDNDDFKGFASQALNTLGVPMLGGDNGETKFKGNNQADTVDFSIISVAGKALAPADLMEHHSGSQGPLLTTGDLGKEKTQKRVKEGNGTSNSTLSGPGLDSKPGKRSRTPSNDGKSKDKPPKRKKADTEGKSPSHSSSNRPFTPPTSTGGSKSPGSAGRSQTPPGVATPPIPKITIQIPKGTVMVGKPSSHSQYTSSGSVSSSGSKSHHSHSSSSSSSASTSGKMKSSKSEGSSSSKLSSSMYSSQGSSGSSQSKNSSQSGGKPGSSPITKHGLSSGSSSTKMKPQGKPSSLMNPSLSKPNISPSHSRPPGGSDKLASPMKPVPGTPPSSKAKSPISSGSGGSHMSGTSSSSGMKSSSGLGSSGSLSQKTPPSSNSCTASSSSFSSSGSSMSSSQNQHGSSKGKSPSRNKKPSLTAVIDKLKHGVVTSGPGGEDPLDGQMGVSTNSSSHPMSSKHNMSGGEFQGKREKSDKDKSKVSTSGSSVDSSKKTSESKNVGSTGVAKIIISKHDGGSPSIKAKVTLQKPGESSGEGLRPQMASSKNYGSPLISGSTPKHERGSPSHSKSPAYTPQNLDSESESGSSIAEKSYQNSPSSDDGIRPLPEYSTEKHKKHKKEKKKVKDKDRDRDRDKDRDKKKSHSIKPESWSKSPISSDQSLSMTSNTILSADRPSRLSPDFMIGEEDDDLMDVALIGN", "assay": "In vitro droplet drug chase out experiment", "assay_type": "binding", "details": "5 μM cisplatin-TR, 10 μM MED1, unlabeled compound 10, 100 or 500 μM", "description": "For chase-out experiments 5 μM labeled cisplatin-TR was added to a MED1 droplets reaction (10 μM MED1, 50 mM Tris-HCl pH 7.5, 10% glycerol, 1 mM DTT, 10% PEG) in order to form MED1 droplets concentrated with Cisplatin-TR. Unlabeled transplatin or unlabeled cisplatin (vehicle, 10 μM, 100 μM, or 500 μM) were added to the droplet mixture and the amount of labeled cisplatin-TR remaining in the droplet is measured after chase out. 100 μM fluorescent FLTX1 was added to a MED1 droplets reaction (10 μM MED1, 50 mM Tris-HCl pH 7.5, 10% glycerol, 1 mM DTT, 10% PEG) in order to form MED1 droplets concentrated with FLTX1."}}, "data": [{"smiles": "N.N.[Cl][Pt][Cl]", "note": "[cisplatin]", "values": [{"measurement": "partitioning / incorporation into HP1α droplets", "setting": "HP1α", "value": "freely diffuses"}, {"measurement": "chase out of cisplatin-TR from MED1 droplets by unlabeled compound", "setting": "MED1 droplets; listed as unlabeled cisplatin", "value": "able to chase out cisplatin-TR"}, {"measurement": "chase out of cisplatin-TR from MED1 droplets by unlabeled compound", "setting": "MED1 droplets; listed as unmodified cisplatin", "value": "could be chased out of the condensate"}]}]}
